Reference: ChEMBL document CHEMBL1134894, “Fused azaindole derivatives: molecular design, synthesis and in vitro pharmacology leading to the preferential dopamine D3 receptor agonist FAUC 725” (Bioorg Med Chem Lett, 2002)
Each block holds one compound with its values, some of them ahead of it.

Tests used:
D(2) dopamine receptor [1] = target: T1, D(2) dopamine receptor (Homo sapiens, UniProt P14416); test: Binding affinity of compound measured using [3H]spiperone for the cloned human dopamine receptor D2 short (high/low affinity is given as 130/50000)
T1 sequence (P14416 whole entry): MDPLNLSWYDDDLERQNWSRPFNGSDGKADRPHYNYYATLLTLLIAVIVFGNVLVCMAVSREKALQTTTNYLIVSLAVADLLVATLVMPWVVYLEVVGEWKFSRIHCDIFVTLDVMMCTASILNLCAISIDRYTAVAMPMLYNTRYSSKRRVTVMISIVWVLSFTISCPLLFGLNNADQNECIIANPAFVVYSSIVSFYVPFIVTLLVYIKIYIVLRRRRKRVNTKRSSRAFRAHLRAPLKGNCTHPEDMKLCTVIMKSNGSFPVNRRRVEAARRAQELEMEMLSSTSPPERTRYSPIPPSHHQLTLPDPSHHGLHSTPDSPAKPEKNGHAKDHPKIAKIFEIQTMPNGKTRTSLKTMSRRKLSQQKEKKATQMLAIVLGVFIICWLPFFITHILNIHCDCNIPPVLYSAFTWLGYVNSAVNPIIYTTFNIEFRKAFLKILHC

D(2) dopamine receptor [2] = target: T2, D(2) dopamine receptor (Rattus norvegicus, UniProt P61169); test: Effective concentration required for agonistic activity against rat D2 short receptor; assay type: functional
T2 sequence (P61169 whole entry): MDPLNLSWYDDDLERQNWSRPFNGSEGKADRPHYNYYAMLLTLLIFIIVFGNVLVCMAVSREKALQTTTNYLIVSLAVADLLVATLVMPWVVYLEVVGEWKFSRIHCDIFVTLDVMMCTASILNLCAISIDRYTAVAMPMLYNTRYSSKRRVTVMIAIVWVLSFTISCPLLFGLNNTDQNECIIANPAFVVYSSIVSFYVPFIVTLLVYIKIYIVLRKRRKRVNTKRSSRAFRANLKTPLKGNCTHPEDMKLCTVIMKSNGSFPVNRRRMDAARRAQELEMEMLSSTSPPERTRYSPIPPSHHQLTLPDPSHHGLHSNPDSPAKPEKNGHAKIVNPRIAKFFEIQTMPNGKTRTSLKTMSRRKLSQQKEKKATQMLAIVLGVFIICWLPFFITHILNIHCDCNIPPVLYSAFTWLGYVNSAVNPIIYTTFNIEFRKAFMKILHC

D(4) dopamine receptor [3] = target: T3, D(4) dopamine receptor (Homo sapiens, UniProt P21917); test: Binding affinity of compound measured using [3H]spiperone for the cloned human dopamine receptor D4.4 (high/low affinity is given as 87/23000)
T3 sequence (P21917 whole entry): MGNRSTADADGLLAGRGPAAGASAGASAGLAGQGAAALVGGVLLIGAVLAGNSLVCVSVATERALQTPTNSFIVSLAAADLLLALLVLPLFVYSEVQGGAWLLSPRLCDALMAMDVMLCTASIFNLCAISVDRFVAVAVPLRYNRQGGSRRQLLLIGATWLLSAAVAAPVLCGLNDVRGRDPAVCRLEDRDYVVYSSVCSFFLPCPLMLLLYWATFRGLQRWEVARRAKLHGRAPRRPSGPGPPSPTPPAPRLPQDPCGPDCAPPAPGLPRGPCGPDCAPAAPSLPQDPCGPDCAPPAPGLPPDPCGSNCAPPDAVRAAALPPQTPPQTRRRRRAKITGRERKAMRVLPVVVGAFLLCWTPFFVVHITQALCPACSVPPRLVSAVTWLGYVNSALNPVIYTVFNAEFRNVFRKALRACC

D(3) dopamine receptor [4] = target: T4, D(3) dopamine receptor (Homo sapiens, UniProt P35462); test: Effective concentration required for agonistic activity against human D3 receptor; assay type: functional
T4 sequence (P35462 whole entry): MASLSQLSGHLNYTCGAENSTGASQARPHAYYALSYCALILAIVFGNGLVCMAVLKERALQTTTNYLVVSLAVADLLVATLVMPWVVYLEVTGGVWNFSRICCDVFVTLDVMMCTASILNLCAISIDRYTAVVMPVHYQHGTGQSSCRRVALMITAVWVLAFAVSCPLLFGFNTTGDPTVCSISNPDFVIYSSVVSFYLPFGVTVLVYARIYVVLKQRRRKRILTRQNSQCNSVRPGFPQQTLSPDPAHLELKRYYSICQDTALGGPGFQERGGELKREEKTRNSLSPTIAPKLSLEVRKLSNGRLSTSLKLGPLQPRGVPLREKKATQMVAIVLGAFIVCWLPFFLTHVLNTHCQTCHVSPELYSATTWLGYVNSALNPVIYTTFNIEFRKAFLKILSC

D(2) dopamine receptor [5] = target: T1, D(2) dopamine receptor; test: Binding affinity of compound measured using [3H]spiperone for the cloned human dopamine receptor D2 long (high/low affinity is given as 230/53000)
D(4) dopamine receptor [6] = target: T3, D(4) dopamine receptor; test: Effective concentration required for agonistic activity against human D4.2 receptor; assay type: functional
D(2) dopamine receptor [7] = target: T2, D(2) dopamine receptor; test: Effective concentration required for agonistic activity against rat D2 long receptor; assay type: functional
D(2) dopamine receptor [8] = target: T5, D(2) dopamine receptor (Bos taurus, UniProt P20288); test: Binding affinity of compound against Dopamine receptor D2 was measured using [3H]pramipexole in Bovine striatal membranes; assay type: cell membranes, Striatum, Membrane
T5 sequence (P20288 whole entry): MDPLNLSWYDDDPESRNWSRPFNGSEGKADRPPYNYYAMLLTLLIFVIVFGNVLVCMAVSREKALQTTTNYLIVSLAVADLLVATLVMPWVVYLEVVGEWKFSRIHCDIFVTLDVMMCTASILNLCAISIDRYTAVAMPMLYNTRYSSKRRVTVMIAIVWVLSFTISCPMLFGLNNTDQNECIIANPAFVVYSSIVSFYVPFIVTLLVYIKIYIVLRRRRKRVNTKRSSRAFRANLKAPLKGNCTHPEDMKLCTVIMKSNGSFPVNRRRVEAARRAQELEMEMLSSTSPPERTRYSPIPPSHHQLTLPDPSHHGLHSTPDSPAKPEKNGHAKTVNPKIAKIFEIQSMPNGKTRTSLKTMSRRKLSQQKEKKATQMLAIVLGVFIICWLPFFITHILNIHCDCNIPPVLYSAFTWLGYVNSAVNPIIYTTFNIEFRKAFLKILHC

D(1A) dopamine receptor = D(1A) dopamine receptor (Bos taurus, UniProt Q95136); test: Binding affinity of compound measured against Dopamine receptor D1 from bovine striatal membranes using radioligand [3H]-SCH- 23390
Chain of D(1A) dopamine receptor (Q95136 whole entry): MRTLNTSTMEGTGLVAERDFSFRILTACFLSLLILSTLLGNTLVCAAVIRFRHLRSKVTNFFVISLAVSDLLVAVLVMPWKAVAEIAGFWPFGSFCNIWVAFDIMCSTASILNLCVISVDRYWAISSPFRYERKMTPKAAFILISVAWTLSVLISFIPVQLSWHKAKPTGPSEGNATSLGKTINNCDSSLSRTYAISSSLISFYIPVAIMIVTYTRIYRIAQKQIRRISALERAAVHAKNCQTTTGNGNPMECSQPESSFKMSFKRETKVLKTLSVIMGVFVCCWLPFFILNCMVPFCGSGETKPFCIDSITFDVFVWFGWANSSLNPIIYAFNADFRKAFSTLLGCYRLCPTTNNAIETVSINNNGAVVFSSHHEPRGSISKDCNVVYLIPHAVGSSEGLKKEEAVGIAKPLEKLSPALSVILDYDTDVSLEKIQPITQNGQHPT

D(3) dopamine receptor [9] = target: T4, D(3) dopamine receptor
Description: Binding affinity of compound measured using [3H]spiperone for the cloned human Dopamine receptor D3 (high/low affinity is given as 16/16000)

D(2) dopamine receptor [10] = target: T2, D(2) dopamine receptor; test: Effective concentration required for agonistic activity against rat Dopamine receptor D2L; assay type: functional
D(4) dopamine receptor [11] = target: T3, D(4) dopamine receptor; test: Binding affinity of compound measured using [3H]spiperone for the cloned human dopamine receptor D4.4 (high/low affinity is given as 50/2200)
D(2) dopamine receptor [12] = target: T1, D(2) dopamine receptor; test: Binding affinity of compound measured using [3H]spiperone for the cloned human Dopamine receptor D2L (high/low affinity is given as 85/6400)
D(2) dopamine receptor [13] = target: T1, D(2) dopamine receptor; test: Binding affinity of compound measured using [3H]spiperone for the cloned human dopamine receptor D2 short (high/low affinity is given as 35/3700)
D(3) dopamine receptor [14] = target: T4, D(3) dopamine receptor; test: Effective concentration required for agonistic activity against human Dopamine receptor D3
D(3) dopamine receptor [15] = target: T4, D(3) dopamine receptor; remark: listed apart in the source
D(4) dopamine receptor [16] = target: T3, D(4) dopamine receptor; test: Binding affinity of compound measured using [3H]spiperone for the cloned human dopamine receptor D4.4 (high/low affinity is given as 16/1300)
D(2) dopamine receptor [17] = target: T5, D(2) dopamine receptor

Ki (D(2) dopamine receptor [1]): 130 nM
EC50 (D(2) dopamine receptor [2]): > 1000 nM
Ki (D(4) dopamine receptor [3]): 87 nM
EC50 (D(3) dopamine receptor [4]): > 1000 nM
Ki (D(2) dopamine receptor [5]): 230 nM
EC50 (D(4) dopamine receptor [6]): > 1000 nM
EC50 (D(2) dopamine receptor [7]): > 1000 nM
Ki (D(2) dopamine receptor [8]): 3100 nM
Ki (D(1A) dopamine receptor): 21000 nM
Ki (D(3) dopamine receptor [9]): 16 nM
Structure (SMILES): CCCN1CCc2nn3ccccc3c2C1

Structure (SMILES): CCCN(CCC)[C@H]1CCc2nn3ccccc3c2C1
EC50 (D(2) dopamine receptor [2]): 47 nM
EC50 (D(2) dopamine receptor [10]): 16 nM
Ki (D(4) dopamine receptor [11]): 50 nM
EC50 (D(4) dopamine receptor [6]): 430 nM
Ki (D(2) dopamine receptor [8]): 8.6 nM
Ki (D(2) dopamine receptor [12]): 85 nM
Ki (D(2) dopamine receptor [13]): 35 nM
Ki (D(1A) dopamine receptor): 18000 nM
EC50 (D(3) dopamine receptor [14]): 2.8 nM
Ki (D(3) dopamine receptor [15]): 0.54 nM

Structure (SMILES): CCCN1CCC[C@@H](c2cccc(O)c2)C1 [PRECLAMOL]
EC50 (D(4) dopamine receptor [6]): 60 nM
Ki (D(4) dopamine receptor [16]): 16 nM
Ki (D(2) dopamine receptor [8]): 52 nM

Structure (SMILES): CCCN[C@H]1CCc2nc(N)sc2C1 [PRAMIPEXOLE]
Kd (D(2) dopamine receptor [17]): 1.6 nM
